The experiment concerns subfoveal choroidal neovascularization (CNV) secondary to age-related macular degeneration (AMD). As to the kind of experiment: Indocyanine green mediated photothrombosis (i-MP) with and without intravitreal Bevacizumab in patients (Example 4). The experiment is classed as in vivo, human.

From patent publication US20100150911A1, “METHODS AND SYSTEMS OF TREATING AGE-RELATED MACULAR-DEGENERATION” (OPTO GLOBAL HOLDINGS PTY LTD, priority 2007, published 2010) come the findings set out here.

For “i-MP+intravitreal Bevacizumab: i-MP combined with an intravitreal injection of Bevacizumab (Avastin), an anti-VEGF compound”, the “need to perform a second treatment session” value (10 months of follow-up, 25 eyes) is given as “not required”. Also, for the setting “10 months of follow-up, 25 eyes per group”, the “eyes with improvement of the visual acuity in 2 lines (Group B: almost 2 lines) with staining in the fluorescein angiography” value is 68%. The “response of the choroidal neovascular membranes (fluorescein angiography and OCT)” value (10 months of follow-up, compared with i-MP alone) is “responded better”. Besides, the “visual acuity obtained by a single patient” value (left eye, occult CNV, visual acuity 0.1 before treatment, 10 months after treatment) is 0.3.
